In doi:10.1101/2024.08.25.609621 (bioRxiv, 2024):
Like-named read-outs stand apart in the source and are kept apart here.

Assays:
[1] = target: SARS-CoV-2 NSP3 macrodomain (Mac1), P43 crystal form (Severe acute respiratory syndrome coronavirus 2, UniProt P0DTD1); assay type: binding; settings: for Number of isomers bound: ligand modeling in Mac1 crystal structure; for Isomers modeled: stereoisomer(s) modeled in Mac1 crystal structure
[2] = target: SARS-CoV-2 NSP3 macrodomain (Mac1) (Severe acute respiratory syndrome coronavirus 2, UniProt P0DTD1); assay: biochemical; assay type: binding; settings: for Ligand efficiency (binding enery per heavy atom): from SARS CoV-2 macrodomain HTRF assay
[3] = dose-response, read-out: SARS CoV-2 macrodomain HTRF assay: IC50
[4] = dose-response, read-out: SARS CoV-2 macrodomain HTRF assay: Ki
[5] = preliminary screen, compound at 200 μM, mean of 3-4 technical replicates, read-out: % competition in HTRF assay

Row | SMILES | Number of isomers bound [1] | Isomers modeled [1] | IC50 [2, 3] | Ki [2, 4] | Ligand efficiency (binding enery per heavy atom) [2] | inhibition at 200 µM ([2]; Single dose, concentration 200 μM, read-out: Average % competition) | inhibition at 200 µM [2, 5] | inhibition at 200 µM ([2]; Single dose, concentration 200 μM, read-out: SARS CoV-2 macrodomain HTRF assay: Average % competition) | IC50 ([2]; SARS CoV-2 macrodomain HTRF assay, dose-response, read-out: IC50) | Ki ([2]; SARS CoV-2 macrodomain HTRF assay, dose-response, read-out: Ki) | IC50 ([2]; read-out: HTRF IC50)
1 | OC1(CNc2ncnc3[nH]ccc23)CCSCC1 [AVI-4319] | 1 | achiral | 170 µM | 160 µM | 0.29 |  |  |  |  |  | 
2 | OC1(CNc2ncnc3[nH]ccc23)CC2CCC1CC2 (stereo not drawn) [AVI-4320] | 1 |  | 83 µM | 77 µM | 0.28 |  |  |  |  |  | 
3 | OC1(CNc2ncnc3[nH]ccc23)CCCSC1 (stereo not drawn) [AVI-4322] | 1 |  | 53 µM | 49 µM | 0.33 |  |  |  |  |  | 
4 | Cc1c[nH]c2ncnc(NCC3(O)CCC(C)CC3)c12 (stereo not drawn) [AVI-4331] | 1 | rr | 210 µM |  | 0.26 |  |  |  |  |  | 
5 | CC(O)C(C)Nc1ncnc2[nH]ccc12 (stereo not drawn) [AVI-5158] | 2 | RS,RR |  |  |  | 32% | 32% |  |  |  | 
6 | CC(C)C1CCCN1c1ncnc2[nH]ccc12 (stereo not drawn) [AVI-5216] | 1 |  |  |  |  |  | 35% | 35% |  |  | 
7 | CC(C)(CO)Nc1ncnc2[nH]ccc12 [AVI-5266] | 1 | achiral |  |  |  |  |  |  | 32 µM | 30 µM | 110 µM
8 | CC1(C)CCN(c2ncnc3[nH]ccc23)C(CO)C1 (stereo not drawn) [AVI-5994] | 1 | S,S | 68 µM | 63 µM | 0.31 |  |  |  |  |  | 
9 | O[C@H]1CC[C@H]2CCN(c3ncnc4[nH]ccc34)[C@H]21 [AVI-5997] | 1 | SSR | 37 µM | 34 µM | 0.34 |  |  |  |  |  | 
10 | OCC1C=CCCN1c1ncnc2[nH]ccc12 (stereo not drawn) [AVI-5998] | 1 |  | 160 µM | 150 µM | 0.31 |  |  |  |  |  | 
11 | OCC1CC=CCN1c1ncnc2[nH]ccc12 (stereo not drawn) [AVI-6002] | 1 |  | 52 µM | 48 µM | 0.35 |  |  |  |  |  | 
12 | OC1(CNc2ncnc3[nH]ccc23)CCCCC1 [AVI-6217] | 1 | achiral | 42 µM | 39 µM | 0.34 |  |  |  |  |  | 
13 | OC1CCC(O)(CNc2ncnc3[nH]ccc23)CC1 (stereo not drawn) [AVI-6220] | 1 | rr,rr | 260 µM | 240 µM | 0.26 |  |  |  |  |  | 
